pIC50, pKi: −log10 of the molar value.
Key:
[1] = Inhibition of SERCA (unknown origin); parameters: species or system Homo sapiens
[2] = target: T1, Sarcoplasmic/endoplasmic reticulum calcium ATPase 1 (Oryctolagus cuniculus, UniProt P04191); test: Inhibition of rabbit SERCA1b expressed in COS7 cells microsomal membranes preincubated for 10 mins followed by addition of ATP and measured after 40 mins by ELISA method; format: cell-based
[3] = target: T2, Sarcoplasmic/endoplasmic reticulum calcium ATPase 2 (Homo sapiens, UniProt P16615); test: Inhibition of human SERCA2b expressed in COS7 cells microsomal membranes preincubated for 10 mins followed by addition of ATP and measured after 40 mins by ELISA method; format: cell-based
[4] = target: T3, Sarcoplasmic/endoplasmic reticulum calcium ATPase 3 (Homo sapiens, UniProt Q93084); test: Inhibition of human SERCA3a expressed in COS7 cells microsomal membranes preincubated for 10 mins followed by addition of ATP and measured after 40 mins by ELISA method; format: cell-based
[5] = target: T1, Sarcoplasmic/endoplasmic reticulum calcium ATPase 1; test: Inhibition of rabbit skeletal muscle microsomes SERCA1a
[6] = Inhibition of porcine cerebellar microsomes SERCA2b by enzyme-coupled method; parameters: species or system Sus scrofa domesticus, Cerebellum
[7] = target: T1, Sarcoplasmic/endoplasmic reticulum calcium ATPase 1; test: Inhibition of rabbit skeletal muscle microsomes SERCA1a by enzyme-coupled method
[8] = target: T3, Sarcoplasmic/endoplasmic reticulum calcium ATPase 3; test: Inhibition of SERCA3 in human platelet microsomes by enzyme-coupled method
[9] = Inhibition of porcine cardiac microsomes SERCA2a by enzyme-coupled method; parameters: species or system Sus scrofa domesticus, Heart
[10] = target: T2, Sarcoplasmic/endoplasmic reticulum calcium ATPase 2; test: Inhibition of SERCA2b in human platelet microsomes by enzyme-coupled method
[11] = target: T1, Sarcoplasmic/endoplasmic reticulum calcium ATPase 1; test: Inhibition of rabbit skeletal muscle microsomes SERCA1a by malachite green based colorimetric method
[12] = target: T1, Sarcoplasmic/endoplasmic reticulum calcium ATPase 1; test: Inhibition of rabbit skeletal muscle microsomes SERCA1a preincubated for 10 mins followed by addition of ATP and measured after 30 mins
[13] = target: T2, Sarcoplasmic/endoplasmic reticulum calcium ATPase 2; test: Inhibition of SERCA2a (unknown origin)
MIA PaCa-2 = test: Antiproliferative activity against human MIAPaCa2 cells; format: functional, cell-based
BJ = test: Antiproliferative activity against human BJ cells; format: functional, cell-based
MRC5 = test: Antiproliferative activity against human MRC5 cells; format: functional, cell-based
[14] = target: T1, Sarcoplasmic/endoplasmic reticulum calcium ATPase 1; test: Inhibition of rabbit skeletal muscle microsomes SERCA1a incubated for 10 mins by enzyme-coupled method
[15] = target: T1, Sarcoplasmic/endoplasmic reticulum calcium ATPase 1; test: Inhibition of rabbit microsomes SERCA1a by enzyme-coupled method
[16] = Inhibition of fish liver microsomes SERCA by enzyme-coupled method; parameters: species or system Squalius cephalus
[17] = target: T1, Sarcoplasmic/endoplasmic reticulum calcium ATPase 1; test: Inhibition of rabbit skeletal muscle microsomes SERCA1a preincubated for 10 mins followed by addition of ATP and measured after 40 mins
[18] = target: T1, Sarcoplasmic/endoplasmic reticulum calcium ATPase 1; test: Inhibition of SERCA1 in rabbit skeletal muscle microsomes assessed as decrease in NADH absorbance by NADH-coupled enzyme assay; parameters: species or system Muscle tissue
[19] = Inhibition of porcine cerebellar microsomes FITC-labelled SERCA2b incubated for 1 hr by fluorescence spectrophotometric method
[20] = target: T1, Sarcoplasmic/endoplasmic reticulum calcium ATPase 1; test: Inhibition of rabbit skeletal muscle microsomes FITC-labelled SERCA1a incubated for 1 hr by fluorescence spectrophotometric method
[21] = target: Sarcoplasmic/endoplasmic reticulum calcium ATPase 2 (Rattus norvegicus, UniProt P11507); test: Inhibition of rat cerebellar microsomes SERCA2b by enzyme-coupled method; parameters: species or system Cerebellum
Homo sapiens = species: Homo sapiens; test: Inhibition of SERCA (unknown origin) at 150 uM relative ro control
[22] = Inhibition of Porcine cerebellar microsomes SERCA preincubated for 10 mins followed by addition of ATP and measured after 10 mins by colorimetric method; parameters: species or system Sus scrofa domesticus, Cerebellum
[23] = Inhibition of Porcine cardiac microsomes SERCA preincubated for 10 mins followed by addition of ATP and measured after 10 mins by colorimetric method; parameters: species or system Sus scrofa domesticus, Heart

T2 sequence (P16615 whole entry): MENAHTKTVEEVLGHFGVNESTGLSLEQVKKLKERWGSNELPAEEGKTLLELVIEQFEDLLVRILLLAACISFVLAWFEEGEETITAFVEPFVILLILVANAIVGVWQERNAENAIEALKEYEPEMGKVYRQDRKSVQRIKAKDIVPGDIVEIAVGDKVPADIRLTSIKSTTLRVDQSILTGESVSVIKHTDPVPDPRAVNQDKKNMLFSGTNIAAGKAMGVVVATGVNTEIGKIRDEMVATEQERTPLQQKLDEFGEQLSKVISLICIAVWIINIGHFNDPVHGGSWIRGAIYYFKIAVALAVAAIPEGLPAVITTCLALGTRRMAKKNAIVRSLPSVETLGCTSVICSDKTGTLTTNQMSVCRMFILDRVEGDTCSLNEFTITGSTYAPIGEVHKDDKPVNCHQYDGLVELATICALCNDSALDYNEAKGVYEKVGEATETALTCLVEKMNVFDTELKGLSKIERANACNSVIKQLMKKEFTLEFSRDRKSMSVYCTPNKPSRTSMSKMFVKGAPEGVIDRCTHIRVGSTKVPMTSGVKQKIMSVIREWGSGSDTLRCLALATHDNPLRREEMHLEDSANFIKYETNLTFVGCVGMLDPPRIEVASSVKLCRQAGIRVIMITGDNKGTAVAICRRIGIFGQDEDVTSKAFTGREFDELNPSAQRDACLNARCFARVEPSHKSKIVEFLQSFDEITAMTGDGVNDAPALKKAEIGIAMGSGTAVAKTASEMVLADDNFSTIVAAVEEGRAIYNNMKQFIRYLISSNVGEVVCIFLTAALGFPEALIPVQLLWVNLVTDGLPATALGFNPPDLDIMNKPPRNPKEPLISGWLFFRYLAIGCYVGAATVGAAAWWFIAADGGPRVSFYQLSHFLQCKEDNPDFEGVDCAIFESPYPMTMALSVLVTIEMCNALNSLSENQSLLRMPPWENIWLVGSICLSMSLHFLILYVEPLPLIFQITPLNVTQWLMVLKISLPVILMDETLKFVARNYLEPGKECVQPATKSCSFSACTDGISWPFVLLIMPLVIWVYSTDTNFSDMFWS
T3 sequence (Q93084 whole entry): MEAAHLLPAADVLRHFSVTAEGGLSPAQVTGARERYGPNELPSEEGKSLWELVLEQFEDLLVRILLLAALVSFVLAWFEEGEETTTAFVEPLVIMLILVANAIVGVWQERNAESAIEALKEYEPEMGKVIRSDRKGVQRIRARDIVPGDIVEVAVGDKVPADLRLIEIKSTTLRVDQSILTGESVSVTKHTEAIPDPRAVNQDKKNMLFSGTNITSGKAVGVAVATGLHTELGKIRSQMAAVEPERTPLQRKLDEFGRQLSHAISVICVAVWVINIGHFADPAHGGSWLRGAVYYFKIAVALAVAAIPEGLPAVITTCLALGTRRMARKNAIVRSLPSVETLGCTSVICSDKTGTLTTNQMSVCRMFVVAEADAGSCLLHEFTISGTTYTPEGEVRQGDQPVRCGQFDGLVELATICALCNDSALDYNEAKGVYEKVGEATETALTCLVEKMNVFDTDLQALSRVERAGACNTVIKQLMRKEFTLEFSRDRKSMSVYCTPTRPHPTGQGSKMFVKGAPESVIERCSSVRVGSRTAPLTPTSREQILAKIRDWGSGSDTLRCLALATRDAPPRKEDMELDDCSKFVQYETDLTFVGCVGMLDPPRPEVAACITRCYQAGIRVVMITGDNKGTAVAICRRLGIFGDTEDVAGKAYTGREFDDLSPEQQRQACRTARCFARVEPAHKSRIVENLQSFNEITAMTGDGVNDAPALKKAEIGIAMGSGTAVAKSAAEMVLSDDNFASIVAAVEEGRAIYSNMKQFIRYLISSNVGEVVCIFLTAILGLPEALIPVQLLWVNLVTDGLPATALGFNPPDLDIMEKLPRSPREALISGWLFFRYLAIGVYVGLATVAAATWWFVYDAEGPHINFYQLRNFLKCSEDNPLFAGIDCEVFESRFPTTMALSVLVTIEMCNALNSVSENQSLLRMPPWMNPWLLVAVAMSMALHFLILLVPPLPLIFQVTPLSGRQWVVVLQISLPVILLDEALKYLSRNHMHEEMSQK
T1 sequence (P04191 whole entry): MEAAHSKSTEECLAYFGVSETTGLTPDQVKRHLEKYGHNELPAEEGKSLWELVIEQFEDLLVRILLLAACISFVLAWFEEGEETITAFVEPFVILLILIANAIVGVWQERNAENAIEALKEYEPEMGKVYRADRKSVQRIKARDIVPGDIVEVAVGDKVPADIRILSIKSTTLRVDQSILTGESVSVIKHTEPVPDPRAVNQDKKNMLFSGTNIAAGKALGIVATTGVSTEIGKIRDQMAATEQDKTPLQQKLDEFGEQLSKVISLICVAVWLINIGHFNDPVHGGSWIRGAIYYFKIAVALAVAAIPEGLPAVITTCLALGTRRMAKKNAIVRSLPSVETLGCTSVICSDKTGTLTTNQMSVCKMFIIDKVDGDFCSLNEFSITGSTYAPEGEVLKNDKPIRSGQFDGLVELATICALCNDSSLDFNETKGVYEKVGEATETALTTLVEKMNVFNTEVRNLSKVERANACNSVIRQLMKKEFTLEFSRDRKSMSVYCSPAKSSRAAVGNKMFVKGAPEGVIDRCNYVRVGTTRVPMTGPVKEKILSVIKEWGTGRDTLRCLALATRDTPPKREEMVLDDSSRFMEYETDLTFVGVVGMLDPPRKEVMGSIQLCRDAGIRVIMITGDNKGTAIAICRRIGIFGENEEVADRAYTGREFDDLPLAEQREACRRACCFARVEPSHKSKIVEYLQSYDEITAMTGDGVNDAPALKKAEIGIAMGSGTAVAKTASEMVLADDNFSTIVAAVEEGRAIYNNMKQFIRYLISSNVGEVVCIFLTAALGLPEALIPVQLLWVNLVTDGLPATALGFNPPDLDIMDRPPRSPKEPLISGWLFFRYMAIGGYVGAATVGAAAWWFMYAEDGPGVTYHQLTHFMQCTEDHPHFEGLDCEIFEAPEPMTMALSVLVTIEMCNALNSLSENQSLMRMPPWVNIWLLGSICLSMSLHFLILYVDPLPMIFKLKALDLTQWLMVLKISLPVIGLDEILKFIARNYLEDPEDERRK
Sequence of Sarcoplasmic/endoplasmic reticulum calcium ATPase 2 (Rattus norvegicus, UniProt P11507) (P11507 whole entry): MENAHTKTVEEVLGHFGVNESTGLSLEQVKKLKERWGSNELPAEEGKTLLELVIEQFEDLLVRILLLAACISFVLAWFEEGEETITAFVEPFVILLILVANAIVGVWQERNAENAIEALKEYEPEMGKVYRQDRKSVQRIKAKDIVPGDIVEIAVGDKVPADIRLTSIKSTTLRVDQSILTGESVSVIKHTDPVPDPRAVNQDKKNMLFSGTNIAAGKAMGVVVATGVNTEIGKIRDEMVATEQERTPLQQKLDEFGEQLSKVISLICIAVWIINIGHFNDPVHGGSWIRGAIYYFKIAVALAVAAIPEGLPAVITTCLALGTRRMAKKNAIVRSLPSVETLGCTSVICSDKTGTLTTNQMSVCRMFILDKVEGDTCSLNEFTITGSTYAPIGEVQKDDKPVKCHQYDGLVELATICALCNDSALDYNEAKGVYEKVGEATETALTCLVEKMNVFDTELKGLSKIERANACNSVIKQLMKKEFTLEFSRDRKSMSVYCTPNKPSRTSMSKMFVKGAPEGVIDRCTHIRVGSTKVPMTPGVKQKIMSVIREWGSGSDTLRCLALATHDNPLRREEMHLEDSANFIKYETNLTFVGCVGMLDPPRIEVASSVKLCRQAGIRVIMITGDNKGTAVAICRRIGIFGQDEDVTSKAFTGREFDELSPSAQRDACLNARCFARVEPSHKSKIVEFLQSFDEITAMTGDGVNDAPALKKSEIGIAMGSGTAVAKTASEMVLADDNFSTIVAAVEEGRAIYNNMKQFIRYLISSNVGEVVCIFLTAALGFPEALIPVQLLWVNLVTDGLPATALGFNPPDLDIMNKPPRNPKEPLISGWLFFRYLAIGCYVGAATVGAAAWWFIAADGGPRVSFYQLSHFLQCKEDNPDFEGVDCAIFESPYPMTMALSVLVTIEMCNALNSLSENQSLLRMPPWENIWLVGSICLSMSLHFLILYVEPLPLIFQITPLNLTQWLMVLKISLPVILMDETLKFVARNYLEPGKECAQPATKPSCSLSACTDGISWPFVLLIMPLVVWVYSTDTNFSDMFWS

CC(C)(C)c1cc(O)c(C(C)(C)C)cc1O
pIC50 [1]: 6.40 | pIC50 [2]: 5.15 to 5.70 | pIC50 [3]: 5.15 to 5.70 | pIC50 [4]: 5.15 to 5.70

CC[C@H](C)[C@H](NC(=O)[C@H](CCCCN)NC(=O)[C@H](CCCCN)NC(=O)[C@H](C)NC(=O)[C@H](CC(C)C)NC(=O)[C@H](C)NC(=O)[C@H](C)NC(=O)[C@H](CC(C)C)NC(=O)[C@H](C)NC(=O)[C@H](CCCCN)NC(=O)[C@H](CC(C)C)NC(=O)[C@H](CC(N)=O)NC(=O)[C@@H](NC(=O)[C@H](Cc1ccc(O)cc1)NC(=O)[C@H](CCCNC(=N)N)NC(=O)[C@@H]1CCCN1C(=O)[C@H](CCCNC(=N)N)NC(=O)[C@H](CC(N)=O)NC(=O)[C@H](CCC(N)=O)NC(=O)[C@H](Cc1ccccc1)NC(=O)[C@@H](Cc1ccc(O)cc1)N(C)C(=O)Cc1ccccc1)[C@@H](C)CC)C(=O)N[C@@H](CC(C)C)C(N)=O
pIC50 [5]: 6.21

CC(C)(O)[C@H]1O[C@H]2CC[C@@]3(C)[C@@](O)(CC[C@H]4Cc5c([nH]c6ccccc56)[C@@]43C)C2=CC1=O [PAXILLINE]
pIC50 [6]: 5.30 | pIC50 [7]: 5.30 | pIC50 [8]: 5.30 | pIC50 [9]: 5.30 | pIC50 [10]: 5.30

COc1cc(/C=C/C(=O)CC(=O)/C=C/c2ccc(O)c(OC)c2)ccc1O [CURCUMIN]
pKi [2]: 5.24 | pKi [3]: 4.28 | pIC50 [6]: 4.82 to 5.15 | pIC50 [7]: 4.82 to 5.52 | pIC50 [8]: 4.82 to 5.15 | pKi [4]: 5.07 | pIC50 [9]: 4.82 to 5.15 | pIC50 [10]: 4.82 to 5.15

Clc1cccc(C(Nc2ccnc3cc(Cl)ccc23)c2ccc(CN3CCCC3)cc2)c1 (stereo unspecified)
pIC50 [11]: 5.10

Cc1cc(O)ccc1Cl [CHLOROCRESOL]
pIC50 [12]: 2.55

Cc1ccc(-c2cc(C(F)(F)F)nn2-c2ccc(S(N)(=O)=O)cc2)c(C)c1
pIC50 [5]: 4.52

C/C=C/C/C(C)=C\[C@@H]1OC(=O)C[C@H](O[C@@H]2O[C@H](CO)[C@@H](O)[C@H](OC)[C@H]2O)/C=C/C[C@H](OC)/C(C)=C/[C@@H](C)C[C@H]2C=C[C@H]1OO2
pKi [13]: 8.89 | pKi [5]: 7.74

C/C=C(/C)C(=O)O[C@@H]1C[C@H]2C(=C1C)[C@@H]1OC(=O)[C@@](C)(O)[C@@]1(O)[C@@H](OC(=O)CCCCn1cc([C@]3(O)CC[C@H]4[C@@H]5CCc6cc(OC)ccc6[C@H]5CC[C@@]43C)nn1)C[C@]2(C)OC(C)=O
pIC50 (MIA PaCa-2): < 4.30 | pIC50 (BJ): 4.77 | pIC50 (MRC5): 5.00

O=C(O[C@@H]1Cc2c(O)cc(O)cc2O[C@@H]1c1cc(O)c(O)c(O)c1)c1cc(O)c(O)c(O)c1 [EPIGALOCATECHIN GALLATE]
pIC50 [5]: 4.92

OCCN1CCN(CCCN2c3ccccc3Sc3ccc(C(F)(F)F)cc32)CC1 [FLUPHENAZINE]
pIC50 [14]: 4.82

CC/C(=C(/CC)c1ccc(O)cc1)c1ccc(O)cc1 [DIETHYLSTILBESTROL]
pIC50 [1]: 4.82 | pIC50 [15]: 4.70 to 4.85 | pIC50 [16]: 4.70 to 5.15

O=c1c(O)c(-c2ccc(O)c(O)c2)oc2cc(O)cc(O)c12 [QUERCETIN]
pIC50 [17]: 5.05

CC(C)(c1cc(Br)c(O)c(Br)c1)c1cc(Br)c(O)c(Br)c1
pIC50 [6]: 5.64 to 6.30 | pIC50 [7]: 5.64 to 6.30

CN1CCN(CCCN2c3ccccc3Sc3ccc(C(F)(F)F)cc32)CC1 [TRIFLUOPERAZINE]
pIC50 [14]: 4.35

CCCCCCCCCCCCCCCCCC(=O)O[C@@H]1[C@@H](O)[C@@H](O)[C@H](OC[C@H]2O[C@@H](Oc3c(-c4ccc(O)c(O)c4)oc4cc(O)cc(O)c4c3=O)[C@H](O)[C@@H](O)[C@@H]2O)O[C@H]1C
pIC50 [18]: 4.46

CC[C@H](C)[C@H](N)C(=O)N[C@@H](CC(N)=O)C(=O)N[C@@H](CC(C)C)C(=O)N[C@@H](CCCCN)C(=O)N[C@@H](C)C(=O)N[C@@H](CC(C)C)C(=O)N[C@@H](C)C(=O)N[C@@H](C)C(=O)N[C@@H](CC(C)C)C(=O)N[C@@H](C)C(=O)N[C@@H](CCCCN)C(=O)N[C@@H](CCCCN)C(=O)N[C@H](C(=O)N[C@@H](CC(C)C)C(=O)O)[C@@H](C)CC
pKi [7]: 6.00

CCCCC/C=C\C/C=C\C/C=C\C/C=C\CCCC(=O)O[C@@H]1[C@@H](O)[C@@H](O)[C@H](OC[C@H]2O[C@@H](Oc3c(-c4ccc(O)c(O)c4)oc4cc(O)cc(O)c4c3=O)[C@H](O)[C@@H](O)[C@@H]2O)O[C@H]1C
pIC50 [18]: 4.64

CN(C)CCCN1c2ccccc2Sc2ccc(Cl)cc21 [CHLORPROMAZINE]
pIC50 [14]: 4.64

C/C(O)=C1\C(=O)[C@@H]2[C@H]3c4c[nH]c5cccc(c45)C[C@H]3C(C)(C)N2C1=O
pIC50 [2]: 5.60 to 7.05 | pIC50 [3]: 5.60 to 7.05 | pIC50 [4]: 5.60 to 7.05

CCOC(=O)CC1C(C(=O)OCC)=C(N)Oc2ccc(-c3cc(OC)cc(OC)c3)cc21 (stereo unspecified)
pIC50 [5]: 4.87

C/C=C(/C)C(=O)O[C@H]1C(C)=C2[C@H]([C@@H]1OC(=O)CCCCCCC)[C@](C)(OC(C)=O)C[C@H](OC(=O)CCC)[C@@]1(O)[C@H]2OC(=O)[C@@]1(C)O
pIC50 [2]: 4.92 to 6.68 | pIC50 [3]: 4.92 to 6.68 | pKi [5]: 7.96 | pIC50 [4]: 4.92 to 6.68

NCCOB(c1ccccc1)c1ccccc1
pIC50 [19]: 3.15 to 4.15 | pIC50 [20]: 3.15 to 4.15

C[C@H](C[C@H](O)[C@H]1OC1(C)C)C1=C2C[C@H](O)[C@H]3[C@@]4(C)CCC(=O)C(C)(C)[C@@H]4CC[C@]3(C)[C@@]2(C)CC1 [ALISOL B]
pIC50 [6]: 4.57 | pIC50 [7]: 4.28 to 4.57

Clc1cccc(C(Nc2ccnc3cc(Cl)ccc23)c2ccc(CN3CCN(c4ccnc5cc(Cl)ccc45)CC3)cc2)c1 (stereo unspecified)
pIC50 [11]: 5.89

C/C=C/C/C(C)=C\[C@H]1C/C=C/C=C/C[C@H](C)/C=C(\C)[C@@H](OC)C/C=C/[C@@H](O)CC(=O)O1
pKi [13]: 7.57 | pKi [5]: 7.77

CCCCC/C=C\C/C=C\CCCCCCCC(=O)O[C@@H]1[C@@H](O)[C@@H](O)[C@H](OC[C@H]2O[C@@H](Oc3c(-c4ccc(O)c(O)c4)oc4cc(O)cc(O)c4c3=O)[C@H](O)[C@@H](O)[C@@H]2O)O[C@H]1C
pIC50 [18]: 4.55

CC(C)(c1ccc(O)cc1)c1ccc(O)cc1 [BISPHENOL A]
pIC50 [21]: 5.70 | pIC50 [15]: 3.63 | pIC50 [7]: 5.70 | pIC50 [16]: 3.63

C/C=C/C/C(C)=C\[C@H]1C/C=C/C=C/C[C@H](C)/C=C(\C)[C@@H](OC)C/C=C/[C@@H](O[C@@H]2O[C@H](CO)[C@@H](O)[C@H](OC)[C@H]2O)CC(=O)O1
pKi [13]: 7.96

O=c1c(O)c(-c2ccccc2)oc2ccc(O)cc12
pIC50 [17]: 5.22

O=C1c2c(O)cc(O)cc2OC2(c3ccc(O)c(O)c3)Oc3cc(-c4oc5cc(O)cc(O)c5c(=O)c4O)ccc3OC12O (stereo unspecified)
inhibition (Homo sapiens): 100%

IVERMECTIN
pIC50 [22]: 4.82 | pIC50 [23]: 4.82

O=c1c(O)c(-c2ccccc2)oc2cc(O)cc(O)c12 [GALANGIN]
pIC50 [17]: 5.05

CC[C@H](C)[C@H](NC(=O)CCCCCNC(=O)[C@H](Cc1ccc(O)cc1)NC(=O)[C@H](CCCNC(=N)N)NC(=O)[C@@H]1CCCN1C(=O)[C@H](CCCNC(=N)N)NC(=O)[C@H](CC(N)=O)NC(=O)[C@H](CCC(N)=O)NC(=O)[C@@H](Cc1ccc(O)cc1)N(C)C(=O)Cc1ccccc1)C(=O)N[C@@H](CC(N)=O)C(=O)N[C@@H](CC(C)C)C(=O)N[C@@H](CCCCN)C(=O)N[C@@H](C)C(=O)N[C@@H](CC(C)C)C(=O)N[C@@H](C)C(=O)N[C@@H](C)C(=O)N[C@@H](CC(C)C)C(=O)N[C@@H](C)C(=O)N[C@@H](CCCCN)C(=O)N[C@@H](CCCCN)C(=O)N[C@H](C(=O)N[C@@H](CC(C)C)C(N)=O)[C@@H](C)CC
pIC50 [5]: 6.52 to 6.57

C/C=C(/C)C(=O)O[C@@H]1C[C@H]2C(=C1C)[C@@H]1OC(=O)[C@@](C)(O)[C@@]1(O)[C@@H](OC(=O)CCCCn1cc([C@]3(O)CC[C@H]4[C@@H]5CCC6=CC(O)CC[C@]6(C)[C@H]5CC[C@@]43C)nn1)C[C@]2(C)OC(C)=O (stereo partly specified)
pIC50 (MIA PaCa-2): 4.30 to 4.86 | pIC50 (BJ): 4.30 to 4.86 | pIC50 (MRC5): < 4.30

CCOC(=O)CC1C(C(=O)OCC)=C(N)Oc2ccc(-c3ccccc3)cc21 (stereo unspecified)
pIC50 [6]: 4.64 | pIC50 [7]: 4.64
